Like-named read-outs stand apart in the source and are kept apart here.
Experiments:
13 PDAC cell lines = test: Phenotypic drug combination viability screen (ATPlite, 72 h), cell line panel; type: cell-based, human; details: for median AUC across all cell lines: single agent, 72 h; for synergy with GEM (Bliss model, ΣAUC∆ > 10%): any of the cell lines, GEM low and GEM high
Method: (§1) Cell viability was assessed by measuring ATP levels to indicate metabolic activity.
(§2) Afterward, small amounts were transferred to 384-well intermediate plates (Greiner Bio-One GmbH, Germany). […] For drug combination screening, 1000 to 5000 cells were seeded into 384-well plates (CulturPlate™, Perkin Elmer, MA, USA) using a Multidrop™ Combi Reagent Dispenser (Thermo Scientific, MA, USA) in 50 µl medium per well 24 h prior to drug treatment (seeding densities see Appendix Table S1). […] The final DMSO concentration in each well was 0.2%. […] Eight wells per plate without library drug served as negative controls, and sixteen wells per plate containing 5 µM Staurosporine served as positive controls. Control plates not containing any drug were used to correct for incubation effects, and data quality was assessed by calculation of Z-prime of positive and negative controls according to1 Z-prime=1−3SDpos+3SDneg/[…] where SD is the standard deviation. […] Dose–response curves from the experimental and hypothetical data were compared, and shifts in AUC were used to describe combination effects (AUC∆ = AUChypothetical − AUCexperimental). […] Only combinations with R^2 > 0.8 in both conditions were considered in the synergy analysis.

[1] = test system: HPDE (immortalized pancreatic duct cell line); test: Drug combination viability screen (ATPlite, 72 h); type: cell-based, human; details: for sensitization of HPDE cells to GEM: combination with GEM; for AUC: single agent, HPDE;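 for AUC: area under vehicle-normalized viability curve scaled 0 to 100 percent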
Method: as §1, §2

Colo-357 cells = test: Drug combination viability screen (ATPlite, 72 h); type: cell-based, human; details: Bliss model
Method: as §1, §2

Capan-1 cells = test: Drug combination viability screen (ATPlite, 72 h); type: cell-based, human; details: Bliss model
Method: as §1, §2

Dan-G cells = test: Drug combination viability screen (ATPlite, 72 h); type: cell-based, human; details: Bliss model
Method: as §1, §2

PaTu-8988-T [2] = test: cells; set-up: Viability of PDAC cell lines, ATPlite luminescence, 11-dose single-agent curve fit; details: Homo sapiens, PaTu 8988t, 72 h, read-out: EC50 [nM]
In short: (§3)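 screening used cells plated at 1000 to 5000 per well one day before treatment. Final DMSO was 0.2%. Each plate held untreated negative-control wells and 5 µM staurosporine positive-control wells.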

Capan-1 [3] = test: cells; set-up: Viability of PDAC cell lines, ATPlite luminescence, 11-dose single-agent curve fit; details: Homo sapiens, CAPAN-1, 72 h, read-out: EC50 [nM]
In short: as §3

Dan-G [4] = test: cells; set-up: Viability of PDAC cell lines, ATPlite luminescence, 11-dose single-agent curve fit; details: 72 h, read-out: EC50 [nM]
In short: as §3

MiaPaCa-2 [5] = test: cells; set-up: Viability of PDAC cell lines, ATPlite luminescence, 11-dose single-agent curve fit; details: Homo sapiens, MIA PaCa-2, 72 h, read-out: EC50 [nM]
In short: as §3

AsPC-1 [6] = test: cells; set-up: Viability of PDAC cell lines, ATPlite luminescence, 11-dose single-agent curve fit; details: Homo sapiens, ASPC1, 72 h, read-out: EC50 [nM]
In short: as §3

Suit2-07 [7] = test: cells; set-up: Viability of PDAC cell lines, ATPlite luminescence, 11-dose single-agent curve fit; details: 72 h, read-out: EC50 [nM]
In short: as §3

PANC-1 [8] = test: cells; set-up: Viability of PDAC cell lines, ATPlite luminescence, 11-dose single-agent curve fit; details: Homo sapiens, PANC-1, 72 h, read-out: EC50 [nM]
In short: as §3

PSN-1 [9] = test: cells; set-up: Viability of PDAC cell lines, ATPlite luminescence, 11-dose single-agent curve fit; details: Homo sapiens, PSN1, 72 h, read-out: EC50 [nM]
In short: as §3

HuP-T4 [10] = test: cells; set-up: Viability of PDAC cell lines, ATPlite luminescence, 11-dose single-agent curve fit; details: Homo sapiens, HuP-T4, 72 h, read-out: EC50 [nM]
In short: as §3

Colo-357 [11] = test: cells; set-up: Viability of PDAC cell lines, ATPlite luminescence, 11-dose single-agent curve fit; details: Homo sapiens, COLO357, 72 h, read-out: EC50 [nM]
In short: as §3

HPDE [12] = test: cells; set-up: Viability of PDAC cell lines, ATPlite luminescence, 11-dose single-agent curve fit; details: HPDE, 72 h, read-out: EC50 [nM]
In short: as §3

FAMPAC [13] = test: cells; set-up: Viability of PDAC cell lines, ATPlite luminescence, 11-dose single-agent curve fit; details: 72 h, read-out: EC50 [nM]
In short: as §3

BxPC-3 [14] = test: cells; set-up: Viability of PDAC cell lines, ATPlite luminescence, 11-dose single-agent curve fit; details: Homo sapiens, BXPC-3, 72 h, read-out: EC50 [nM]
In short: as §3

PaTu-8988-T [15] = test: cells; set-up: ATPlite luminescence viability of PDAC cell lines, 11-dose single-agent curves, 4-parameter fit; details: Homo sapiens, PaTu 8988t, 72 h, read-out: EC50 [nM]
In short: (§4)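 Drug-combination screening used cells plated at 1000 to 5000 per well one day before treatment. Final DMSO was 0.2%. Each plate held untreated negative-control wells and 5 µM staurosporine positive-control wells.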

Capan-1 [16] = test: cells; set-up: ATPlite luminescence viability of PDAC cell lines, 11-dose single-agent curves, 4-parameter fit; details: Homo sapiens, CAPAN-1, 72 h, read-out: EC50 [nM]
In short: as §4

Dan-G [17] = test: cells; set-up: ATPlite luminescence viability of PDAC cell lines, 11-dose single-agent curves, 4-parameter fit; details: 72 h, read-out: EC50 [nM]
In short: as §4

MiaPaCa-2 [18] = test: cells; set-up: ATPlite luminescence viability of PDAC cell lines, 11-dose single-agent curves, 4-parameter fit; details: Homo sapiens, MIA PaCa-2, 72 h, read-out: EC50 [nM]
In short: as §4

AsPC-1 [19] = test: cells; set-up: ATPlite luminescence viability of PDAC cell lines, 11-dose single-agent curves, 4-parameter fit; details: Homo sapiens, ASPC1, 72 h, read-out: EC50 [nM]
In short: as §4

Suit2-07 [20] = test: cells; set-up: ATPlite luminescence viability of PDAC cell lines, 11-dose single-agent curves, 4-parameter fit; details: 72 h, read-out: EC50 [nM]
In short: as §4

PANC-1 [21] = test: cells; set-up: ATPlite luminescence viability of PDAC cell lines, 11-dose single-agent curves, 4-parameter fit; details: Homo sapiens, PANC-1, 72 h, read-out: EC50 [nM]
In short: as §4

PSN-1 [22] = test: cells; set-up: ATPlite luminescence viability of PDAC cell lines, 11-dose single-agent curves, 4-parameter fit; details: Homo sapiens, PSN1, 72 h, read-out: EC50 [nM]
In short: as §4

HuP-T4 [23] = test: cells; set-up: ATPlite luminescence viability of PDAC cell lines, 11-dose single-agent curves, 4-parameter fit; details: Homo sapiens, HuP-T4, 72 h, read-out: EC50 [nM]
In short: as §4

Colo-357 [24] = test: cells; set-up: ATPlite luminescence viability of PDAC cell lines, 11-dose single-agent curves, 4-parameter fit; details: Homo sapiens, COLO357, 72 h, read-out: EC50 [nM]
In short: as §4

HPDE [25] = test: cells; set-up: ATPlite luminescence viability of PDAC cell lines, 11-dose single-agent curves, 4-parameter fit; details: HPDE, 72 h, read-out: EC50 [nM]
In short: as §4

FAMPAC [26] = test: cells; set-up: ATPlite luminescence viability of PDAC cell lines, 11-dose single-agent curves, 4-parameter fit; details: 72 h, read-out: EC50 [nM]
In short: as §4

BxPC-3 [27] = test: cells; set-up: ATPlite luminescence viability of PDAC cell lines, 11-dose single-agent curves, 4-parameter fit; details: Homo sapiens, BXPC-3, 72 h, read-out: EC50 [nM]
In short: as §4

Structure (SMILES)	median AUC across all cell lines (13 PDAC cell lines) [%]	sensitization of HPDE cells to GEM [1]	synergy with GEM (Colo-357 cells)	synergy with GEM (Capan-1 cells)	synergy with GEM (Dan-G cells)	EC50 (PaTu-8988-T [15]) [nM]	EC50 (Capan-1 [16]) [nM]	EC50 (Dan-G [17]) [nM]	EC50 (MiaPaCa-2 [18]) [nM]	EC50 (AsPC-1 [19]) [nM]	EC50 (Suit2-07 [20]) [nM]	EC50 (PANC-1 [21]) [nM]	EC50 (PSN-1 [22]) [nM]	EC50 (HuP-T4 [23]) [nM]	EC50 (Colo-357 [24]) [nM]	EC50 (HPDE [25]) [nM]	EC50 (FAMPAC [26]) [nM]	EC50 (BxPC-3 [27]) [nM]	synergy with GEM (Bliss model, ΣAUC∆ > 10%) (13 PDAC cell lines)	AUC [1] [%]	further results
CO[C@H]1C[C@@H]2CC[C@@H](C)[C@@](O)(O2)C(=O)C(=O)N2CCCC[C@H]2C(=O)O[C@H]([C@H](C)C[C@@H]2CC[C@@H](OCCO)[C@H](OC)C2)CC(=O)[C@H](C)/C=C(\C)[C@@H](O)[C@@H](OC)C(=O)[C@H](C)C[C@H](C)/C=C/C=C/C=C/1C [Everolimus]	> 80	strongly sensitized	synergized	synergized	synergized	–	–	–	–	–	–	–	–	–	–	–	–	–	–	–	–
CO[C@H]1C[C@@H]2CC[C@@H](C)[C@@](O)(O2)C(=O)C(=O)N2CCCC[C@H]2C(=O)O[C@H]([C@H](C)C[C@@H]2CC[C@@H](O)[C@H](OC)C2)CC(=O)[C@H](C)/C=C(\C)[C@@H](O)[C@@H](OC)C(=O)[C@H](C)C[C@H](C)/C=C/C=C/C=C/1C [Rapamycin]	> 80	strongly sensitized	synergized	synergized	synergized	–	–	–	–	–	–	–	–	–	–	–	–	–	–	–	EC50 (PaTu-8988-T [2]): 0.05 nM; EC50 (Capan-1 [3]): 0.11 nM; EC50 (Dan-G [4]): 0.09 nM; EC50 (MiaPaCa-2 [5]): 1.11 nM; EC50 (AsPC-1 [6]): 50.8 nM; EC50 (Suit2-07 [7]): 7.19 nM; EC50 (PANC-1 [8]): 4.67 nM; EC50 (PSN-1 [9]): 0.05 nM; EC50 (HuP-T4 [10]): 1.13 nM; EC50 (Colo-357 [11]): 276 nM; EC50 (HPDE [12]): 0.08 nM; EC50 (FAMPAC [13]): 1.59 nM; EC50 (BxPC-3 [14]): 0.08 nM
O=C(c1ccc(F)c(F)c1Nc1ccc(I)cc1F)N1CC(O)([C@@H]2CCCCN2)C1 [Cobimetinib]	< 70	–	–	–	–	5570	8510	> 10000	6.21	13.7	752	> 10000	12.3	> 10000	5300	4490	39.5	101	–	–	–
CC[C@@H]1C(=O)N(C)c2cnc(Nc3ccc(C(=O)N[C@H]4CC[C@H](N5CCN(CC6CC6)CC5)CC4)cc3OC)nc2N1C(C)C [Volasertib]	54	–	–	–	–	33.8	32.3	29.1	12.8	21.1	19	37.7	16.4	> 10000	19.8	> 10000	19.9	25.2	No synergy	–	–
CCc1cnn2c(NCc3ccc[n+]([O-])c3)cc(N3CCCC[C@H]3CCO)nc12 [Dinaciclib]	40	–	–	–	–	–	–	–	–	–	–	–	–	–	–	–	–	–	No synergy	38	–
CC(C)n1nc(-c2ccc3oc(N)nc3c2)c2c(N)ncnc21 [Sapanisertib]	54	–	–	–	–	3.95	135	8.08	10.1	1.5	14.2	70.5	23.2	1510	10.8	11.7	2.05	11.2	–	< 60	–
